Values quoted from earlier work, collected in US20050250674A1, “Nutritional and food supplement preparation comprising creatine and orotic acid complexes, derivatives and analogs” (priority 2004, published 2005).

Conditions: oral ingestion of about 20 to 30 g per day, divided between several doses, for several days

In the case of `CN(CC(=O)O)C(=N)N` [creatine, methyl guanidine-acetic acid], the “increase in human skeletal muscle total creatine content” value is listed as “greater than 20%”.
